Laboratory results from ChEMBL document CHEMBL4387706, “Discovery of Novel Spiroindoline Derivatives as Selective Tankyrase Inhibitors” (J Med Chem, 2019).
pIC50: −log10 of the molar value. Values after ≈ are worked out from the molar mass of the structure shown.

Assays:
physchem = settings: phosphate buffer, pH 7.4
[1] = molecular target: T1, Poly [ADP-ribose] polymerase tankyrase-2 (Homo sapiens, UniProt Q9H2K2)
T1 sequence (Q9H2K2 whole entry): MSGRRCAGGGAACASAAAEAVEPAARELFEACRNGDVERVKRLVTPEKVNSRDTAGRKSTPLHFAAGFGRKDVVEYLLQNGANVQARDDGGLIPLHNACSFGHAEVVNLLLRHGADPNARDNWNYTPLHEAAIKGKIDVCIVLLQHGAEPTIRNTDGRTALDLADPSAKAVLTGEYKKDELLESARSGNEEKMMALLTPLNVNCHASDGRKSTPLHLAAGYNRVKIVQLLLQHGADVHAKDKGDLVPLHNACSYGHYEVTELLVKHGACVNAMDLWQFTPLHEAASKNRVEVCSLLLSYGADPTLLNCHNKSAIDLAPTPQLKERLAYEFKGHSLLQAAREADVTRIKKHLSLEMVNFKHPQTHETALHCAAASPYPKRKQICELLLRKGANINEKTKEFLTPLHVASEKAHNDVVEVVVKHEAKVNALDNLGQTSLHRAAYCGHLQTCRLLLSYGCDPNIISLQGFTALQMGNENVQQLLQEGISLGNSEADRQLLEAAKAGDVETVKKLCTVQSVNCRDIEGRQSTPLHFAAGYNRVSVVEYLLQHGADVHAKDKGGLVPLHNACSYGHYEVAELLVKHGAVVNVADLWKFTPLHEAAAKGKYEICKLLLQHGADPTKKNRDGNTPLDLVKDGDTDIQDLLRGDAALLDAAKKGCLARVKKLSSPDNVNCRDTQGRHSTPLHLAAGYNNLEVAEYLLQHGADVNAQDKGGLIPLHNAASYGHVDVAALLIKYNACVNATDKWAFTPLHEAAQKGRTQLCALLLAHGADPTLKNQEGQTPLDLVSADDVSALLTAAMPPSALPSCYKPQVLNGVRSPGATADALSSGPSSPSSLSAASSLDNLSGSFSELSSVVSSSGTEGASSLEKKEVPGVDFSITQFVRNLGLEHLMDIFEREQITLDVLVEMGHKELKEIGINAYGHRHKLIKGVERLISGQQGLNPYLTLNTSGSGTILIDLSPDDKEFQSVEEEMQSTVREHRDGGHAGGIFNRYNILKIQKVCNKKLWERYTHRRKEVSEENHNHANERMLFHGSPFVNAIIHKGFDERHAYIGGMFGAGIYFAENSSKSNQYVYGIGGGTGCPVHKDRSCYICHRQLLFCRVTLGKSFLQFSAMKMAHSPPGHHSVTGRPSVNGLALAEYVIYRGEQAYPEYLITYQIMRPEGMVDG
Description: Inhibition of recombinant human N-terminal TEV cleavage site-fused/FLAG-poly his-tagged TNKS2 SAM-PARP domain (613 to 1166 residues) expressed in Escherichia coli assessed as reduction in auto-PARylation preincubated for 10 mins followed by biotinylated-NAD+ addition and measured after 45 mins by ELISA

[2] = molecular target: T2, Poly [ADP-ribose] polymerase tankyrase-1 (Homo sapiens, UniProt O95271)
T2 sequence (O95271 whole entry): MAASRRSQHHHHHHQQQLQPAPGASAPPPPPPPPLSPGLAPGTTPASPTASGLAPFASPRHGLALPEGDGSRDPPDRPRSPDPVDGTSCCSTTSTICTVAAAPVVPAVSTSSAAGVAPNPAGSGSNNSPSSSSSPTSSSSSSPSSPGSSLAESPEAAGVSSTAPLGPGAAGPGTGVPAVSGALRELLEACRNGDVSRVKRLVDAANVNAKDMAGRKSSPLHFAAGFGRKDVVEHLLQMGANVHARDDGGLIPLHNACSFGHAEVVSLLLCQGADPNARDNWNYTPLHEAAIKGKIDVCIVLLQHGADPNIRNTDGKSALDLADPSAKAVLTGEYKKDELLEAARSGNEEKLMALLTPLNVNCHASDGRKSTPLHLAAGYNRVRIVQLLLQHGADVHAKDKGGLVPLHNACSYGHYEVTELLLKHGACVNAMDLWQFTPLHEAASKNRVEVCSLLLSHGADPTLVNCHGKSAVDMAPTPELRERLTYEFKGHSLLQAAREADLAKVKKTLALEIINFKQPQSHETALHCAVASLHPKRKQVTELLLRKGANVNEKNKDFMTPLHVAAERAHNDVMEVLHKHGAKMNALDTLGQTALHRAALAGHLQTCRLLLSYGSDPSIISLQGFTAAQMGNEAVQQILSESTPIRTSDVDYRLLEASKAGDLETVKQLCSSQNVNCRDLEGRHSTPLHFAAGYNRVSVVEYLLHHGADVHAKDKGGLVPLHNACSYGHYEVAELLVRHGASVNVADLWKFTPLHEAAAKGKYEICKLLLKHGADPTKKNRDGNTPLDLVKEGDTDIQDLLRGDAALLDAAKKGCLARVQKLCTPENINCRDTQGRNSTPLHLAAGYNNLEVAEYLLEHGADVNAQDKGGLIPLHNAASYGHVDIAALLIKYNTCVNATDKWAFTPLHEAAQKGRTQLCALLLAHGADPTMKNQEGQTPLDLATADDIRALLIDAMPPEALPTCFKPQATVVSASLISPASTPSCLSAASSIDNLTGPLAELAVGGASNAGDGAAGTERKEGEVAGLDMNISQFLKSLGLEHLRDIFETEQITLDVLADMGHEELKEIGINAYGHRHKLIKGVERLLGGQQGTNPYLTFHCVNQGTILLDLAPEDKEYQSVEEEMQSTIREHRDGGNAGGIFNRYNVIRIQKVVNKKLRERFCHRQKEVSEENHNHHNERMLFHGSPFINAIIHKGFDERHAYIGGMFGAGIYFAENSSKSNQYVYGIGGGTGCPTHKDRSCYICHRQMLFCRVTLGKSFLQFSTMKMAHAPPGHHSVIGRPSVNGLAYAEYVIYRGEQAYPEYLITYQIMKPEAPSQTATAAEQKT
Description: Inhibition of recombinant human N-terminal TEV cleavage site-fused/FLAG-poly his-tagged TNKS SAM-PARP domain (1024 to 1327 residues) expressed in Escherichia coli assessed as reduction in auto-PARylation preincubated for 10 mins followed by biotinylated-NAD+ addition and measured after 45 mins by ELISA

COLO 320DM = assay: cells; settings: Homo sapiens, 96 h
Description: Antiproliferative activity against human COLO320DM cells assessed as inhibition of cell growth measured after 4 days by CellTiter-Glo assay

[3] = molecular target: Poly [ADP-ribose] polymerase 1 (Homo sapiens, UniProt P09874)
Chain of Poly [ADP-ribose] polymerase 1 (P09874 whole entry): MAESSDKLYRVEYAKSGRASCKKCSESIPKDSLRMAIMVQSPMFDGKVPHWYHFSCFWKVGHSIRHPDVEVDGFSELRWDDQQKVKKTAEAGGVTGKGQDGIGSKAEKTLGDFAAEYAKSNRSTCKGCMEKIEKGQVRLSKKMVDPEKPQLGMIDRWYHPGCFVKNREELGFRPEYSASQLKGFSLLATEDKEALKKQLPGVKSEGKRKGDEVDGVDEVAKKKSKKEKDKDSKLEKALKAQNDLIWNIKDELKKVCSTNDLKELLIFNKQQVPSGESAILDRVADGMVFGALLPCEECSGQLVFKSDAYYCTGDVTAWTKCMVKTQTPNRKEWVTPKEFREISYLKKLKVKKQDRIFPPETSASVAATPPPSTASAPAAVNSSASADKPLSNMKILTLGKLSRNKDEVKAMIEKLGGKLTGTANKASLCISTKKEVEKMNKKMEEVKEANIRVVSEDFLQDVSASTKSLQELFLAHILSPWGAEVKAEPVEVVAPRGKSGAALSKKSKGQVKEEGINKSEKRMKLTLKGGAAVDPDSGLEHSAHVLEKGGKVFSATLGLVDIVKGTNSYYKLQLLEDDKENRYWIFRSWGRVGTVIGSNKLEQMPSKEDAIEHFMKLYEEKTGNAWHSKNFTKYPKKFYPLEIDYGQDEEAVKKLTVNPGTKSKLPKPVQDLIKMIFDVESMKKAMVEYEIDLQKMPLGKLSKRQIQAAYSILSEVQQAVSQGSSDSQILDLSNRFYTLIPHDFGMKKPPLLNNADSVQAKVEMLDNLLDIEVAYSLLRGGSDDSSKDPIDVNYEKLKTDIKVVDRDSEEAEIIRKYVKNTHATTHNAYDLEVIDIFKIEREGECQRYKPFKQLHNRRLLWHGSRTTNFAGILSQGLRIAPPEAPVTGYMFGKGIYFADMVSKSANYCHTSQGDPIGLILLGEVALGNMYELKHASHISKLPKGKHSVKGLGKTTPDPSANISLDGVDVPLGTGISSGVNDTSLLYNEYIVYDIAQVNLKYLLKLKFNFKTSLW
Description: Inhibition of recombinant human PARP1 expressed in Escherichia coli assessed as reduction in auto-PARylation using histone as substrate measured after 45 mins in presence of biotinylated-NAD+ by ELISA

Tankyrase 1/2 = molecular target: T3, Tankyrase 1/2 (Homo sapiens, UniProt Q9H2K2+O95271)
T3 sequence (Q9H2K2 whole entry): T1 sequence (Q9H2K2 whole entry)
T3 sequence (O95271 whole entry): T2 sequence (O95271 whole entry)
Description: Inhibition of TNKS/TNKS2 (unknown origin) expressed in human DLD1 cells assessed as reduction in Wnt-signaling measured after 24 hrs by TCF-luciferase reporter gene assay

Structure (SMILES)	solubility at 1 h, 200 µM (physchem) [µg/mL]	pIC50 [1]	pIC50 [2]	GI50 (COLO 320DM) [µM]	pIC50 [3]	IC50 (Tankyrase 1/2) [nM]
COc1cccc(N2CCN(c3nc4c(c(=O)[nH]3)CSCC4)CC2)c1	1.7 (≈ 4.74 µM)	8.32	8.21	7.4	< 4.70	148
COc1ccccc1N1CCN(c2nc3c(c(=O)[nH]2)CC(C)CC3)CC1 (stereo unspecified)	1.8 (≈ 5.08 µM)	5.46	5.87	–	–	7282
COc1ccc(N2CCN(c3nc4c(c(=O)[nH]3)CCCC4)CC2)cc1	4.6 (≈ 13.5 µM)	7.34	7.46	> 20	< 4.70	1294
O=C1NC2(CCN(c3nc4c(c(=O)[nH]3)CCCC4)CC2)c2ccccc21	70.1 (≈ 200 µM)	6.59	6.29	97.7	< 4.70	> 10000
COc1ccccc1N1CCCN(c2nc3c(c(=O)[nH]2)CCCC3)CC1	69.6 (≈ 196 µM)	–	5.22	41.9	< 4.70	9144
O=c1[nH]c(N2CCC3(CC2)NCc2ccccc23)nc2c1CCCC2	67 (≈ 199 µM)	7.53	6.93	22.4	< 4.70	1605
COc1cccc(N2CCN(c3nc4c(c(=O)[nH]3)CCCC4)CC2)c1	5.2 (≈ 15.3 µM)	7.40	7.40	14.2	< 4.70	1066
O=C1Nc2cc(Cl)cc(Cl)c2C12CCN(c1nc3c(c(=O)[nH]1)CCCC3)CC2	15.7 (≈ 37.4 µM)	8.15	8.28	21.4	–	533
O=C1Nc2cc(Cl)ccc2C12CCN(c1nc3c(c(=O)[nH]1)CCCC3)CC2	1.8 (≈ 4.68 µM)	7.84	7.95	19.9	–	623
O=c1[nH]c(N2CCC3(CC2)CNc2cc(F)ccc23)nc2c1CCCC2	3.2 (≈ 9.03 µM)	8.12	7.78	10.3	–	657
O=c1[nH]c(N2CCC3(CC2)CNc2cccc(Br)c23)nc2c1CCCC2	8.9 (≈ 21.4 µM)	7.81	7.80	10.4	–	454
COc1ccc(N2CCN(c3nc4c(c(=O)[nH]3)CSCC4)CC2)cc1	0.9 (≈ 2.51 µM)	8.59	8.47	> 50	< 4.70	114
O=c1[nH]c(N2CCC3(CC2)CNc2cc(Cl)ccc23)nc2c1CCCC2	9.2 (≈ 24.8 µM)	8.24	8.08	6.9	–	818
O=C1Nc2cccc(F)c2C12CCN(c1nc3c(c(=O)[nH]1)CCCC3)CC2	3.1 (≈ 8.41 µM)	8.33	8.24	2.3	–	31.1
O=C1Nc2cccc(Cl)c2C12CCN(c1nc3c(c(=O)[nH]1)CCCC3)CC2	2.8 (≈ 7.28 µM)	8.31	7.99	5	–	21.5
COc1ccccc1N1CCN(c2nc3c(c(=O)[nH]2)CNCC3)CC1	66.4 (≈ 194 µM)	5.16	5.11	–	–	> 10000
N#Cc1cccc2c1C1(CCN(c3nc4c(c(=O)[nH]3)CCCC4)CC1)C(=O)N2	5.3 (≈ 14.1 µM)	7.57	7.77	20.4	–	496
O=c1[nH]c(N2CCC3(CC2)CNc2cccc(F)c23)nc2c1CCCC2	4.2 (≈ 11.9 µM)	8.55	8.36	3.3	–	72.4
O=C1Nc2cc(F)cc(F)c2C12CCN(c1nc3c(c(=O)[nH]1)CCCC3)CC2	0.8 (≈ 2.07 µM)	8.12	8.19	4.2	–	43.9
O=C1Nc2cc(F)ccc2C12CCN(c1nc3c(c(=O)[nH]1)CCCC3)CC2	62.9 (≈ 171 µM)	7.92	7.96	15	–	369
N#Cc1cccc2c1C1(CCN(c3nc4c(c(=O)[nH]3)CCCC4)CC1)CN2	69.2 (≈ 191 µM)	7.73	8.00	23.6	–	799
COc1ccccc1N1CCN(c2nc3c(c(=O)[nH]2)CN(C)CC3)CC1	69.7 (≈ 196 µM)	< 4.70	< 4.70	–	–	> 10000
O=c1[nH]c(N2CCC3(CC2)CNc2cc(Cl)cc(Cl)c23)nc2c1CCCC2	11 (≈ 27.1 µM)	7.98	8.12	7.5	–	609
O=c1[nH]c(N2CCC3(CC2)CNc2cc(F)cc(F)c23)nc2c1CCCC2	6.3 (≈ 16.9 µM)	8.48	8.27	5.2	–	110
COc1ccccc1N1CCN(c2nc3c(c(=O)[nH]2)CC(C)(C)CC3)CC1	2.4 (≈ 6.51 µM)	< 4.70	< 4.70	–	–	> 10000
COc1ccccc1N1CCN(C2=NC3CCCCCC3C(=O)N2)CC1 (stereo unspecified)	–	–	–	–	–	> 10000
COc1ccccc1N1CCC(c2nc3c(c(=O)[nH]2)CCCC3)CC1	–	5.19	4.84	19.6	–	5401
O=C1Nc2cccc(Br)c2C12CCN(c1nc3c(c(=O)[nH]1)CCCC3)CC2	1.9 (≈ 4.43 µM)	7.87	8.24	8.8	–	91.2
Oc1nc(N2CCN(c3ccccc3)CC2)nc2c1CCCC2	4.9 (≈ 15.8 µM)	7.23	6.87	–	–	1536
O=c1[nH]c(N2CCC3(CC2)CNc2cccc(Cl)c23)nc2c1CCCC2	2.6 (≈ 7.01 µM)	8.28	8.19	4.9	–	247
